Here are results for 20 compounds from patent US20210276977A1, “BICYCLIC INHIBITORS OF HISTONE DEACETYLASE” (Alkermes, Inc., priority 2018, published 2021).

One experiment addresses T1, Full length Human HDAC2 (Homo sapiens, UniProt Q92769).
T1 construct: Full length Human HDAC2; FLAG (C); host or cells: baculovirus expression system
Briefly: HDAC2 enzymatic assay (deacetylation of FAM-labeled peptide substrate, microfluidic electrophoresis). The format is biochemical. To be noted: for IC50: recombinant enzymatic assay. As for the experimental part: (§1) HDAC2 and HDAC1 Enzymatic Assay (HDAC2 and HDAC1 IC50 Data)
(§2) The following describes an assay protocol for measuring the deacetylation of a peptide substrate by HDAC2 or HDAC1.
(§3) HD AC protein composition and respective substrate peptides are summarized below.
(§4) HD AC reactions are assembled in 384 well plates (Greiner) in a total volume of 20 μL as following:
(§5) HDAC proteins are pre-diluted in the assay buffer comprising: 100 mM HEPES, pH 7.5, 0.1% BSA, 0.01% Triton X-100, 25 mM KCl and dispensed into 384 well plate (10 uL per well).
(§6) Test compounds are serially pre-diluted in DMSO and added to the protein samples by acoustic dispensing (Labcyte Echo). Concentration of DMSO is equalized to 1% in all samples.
(§7) Control samples (0%-inhibition in the absence of inhibitor, DMSO only) and 100%-inhibition (in the absence of enzyme) are assembled in replicates of four and used to calculate the %-inhibition in the presence of compounds.
(§8) At this step compounds can be pre-incubated with enzyme if desired.
(§9) The reactions are initiated by addition of 10 uL of the FAM-labeled substrate peptide pre-diluted in the same assay buffer. Final concentration of substrate peptide is 1 uM (HDAC1-2).
(§10) The reactions are allowed to proceed at room temperature. Following incubation, the reactions are quenched by addition of 50 μL of termination buffer (100 mM HEPES, pH7.5, 0.01% Triton X-100, 0.1% SDS). Terminated plates are analyzed on a microfluidic electrophoresis instrument (Caliper LabChip® 3000, Caliper Life Sciences/Perkin Elmer) which enables electrophoretic separation of de-acetylated product from acetylated substrate. A change in the relative intensity of the peptide substrate and product is the parameter measured. Activity in each test sample is determined as the product to sum ratio (PSR): P/(S+P), where P is the peak height of the product, and S is the peak height of the substrate. Percent inhibition (Pinh) is determined using the following equation: Pinh=(PSR0% inh−PSRcompound)/(PSR0% inh−PSR100% inh)*100, in which: PSRcompound is the product/sum ratio in the presence of compound, PSR0% inh is the product/sum ratio in the absence of compound and the PSR100% inh is the product/sum ratio in the absence of the enzyme. To determine IC50 of compounds (50%-inhibition) the %-inh data (Pinh versus compound concentration) are fit by a 4 parameter sigmoid dose-response model using XLfit software (IDBS).
(§11) In the table, “A” indicates a IC50 value of less than 0.5 μM; “B” a IC50 value from 0.5 μM to 1.0 μM; “C” a IC50 value of greater than 1.0 μM and less than or equal to 2.0 μM; and “D” indicates an IC50 value of greater than 2.0 μM. NT=Not Tested.

A further experiment deals with T2, Full length Human HDAC1 (Homo sapiens, UniProt Q13547).
T2 construct: Full length Human HDAC1; His (C); FLAG (C); host or cells: baculovirus expression system
Nature of the experiment: HDAC1 enzymatic assay (deacetylation of FAM-labeled peptide substrate, microfluidic electrophoresis). The experiment is classed as biochemical. To be noted: for IC50: recombinant enzymatic assay. As for the experimental part: as §1, §2, §3, §4, §5, §6, §7, §8, §9, §10, §11

The next experiment has as its target T3, HDAC2 (Homo sapiens, UniProt Q92769).
T3 construct: host or cells: SH-SY5Y cells
Nature of the experiment: HDAC2 Enzymatic Inhibition Assay in SH-SY5Y Cell Lysate with an Exogenous Substrate (HDAC-Glo 2). The experiment is classed as cell-based. To be noted: for IC50: SH-SY5Y cells. As to the method: HDAC2 Enzymatic Inhibition Assay in SH-SY5Y Cell Lysate with an Exogenous Substrate
SH-SY5Y cells (Sigma) were cultured in Eagle's Modified Essential Medium supplemented with 10% fetal bovine serum and pen/strep. Twenty-four hours prior to compound dosing 20 uL of cells were plated in white 384 well plates at a density of 1,500 cells/well. Compounds were serially diluted in neat DMSO and then diluted 1:100 v/v into media without FBS and mixed. Media was removed from the plated cells and the diluted compounds in serum free media (1% v/v final DMSO) were added and incubated at 37° C. for five hours. Ten uL of HDAC-Glo 2 reagent with 0.1% Triton X-100 was then added, the plate was mixed and allowed to develop at room temperature for 100 minutes. Plates were then read with a Spectramax LMax luminometer employing a 0.4 s integration time. Dose response curves were constructed with normalized data where CI-994 at 100 uM was defined as 100% inhibition and DMSO alone as 0% inhibition.
as §11

Setting [1] is: versus matched Comparator with heteroaromatic ring directly linked to azetidine.
[2] abbreviates: five hours incubation, Table 3, class symbols.

The structures appear in SMILES notation.

T1 sequence (Q92769 whole entry): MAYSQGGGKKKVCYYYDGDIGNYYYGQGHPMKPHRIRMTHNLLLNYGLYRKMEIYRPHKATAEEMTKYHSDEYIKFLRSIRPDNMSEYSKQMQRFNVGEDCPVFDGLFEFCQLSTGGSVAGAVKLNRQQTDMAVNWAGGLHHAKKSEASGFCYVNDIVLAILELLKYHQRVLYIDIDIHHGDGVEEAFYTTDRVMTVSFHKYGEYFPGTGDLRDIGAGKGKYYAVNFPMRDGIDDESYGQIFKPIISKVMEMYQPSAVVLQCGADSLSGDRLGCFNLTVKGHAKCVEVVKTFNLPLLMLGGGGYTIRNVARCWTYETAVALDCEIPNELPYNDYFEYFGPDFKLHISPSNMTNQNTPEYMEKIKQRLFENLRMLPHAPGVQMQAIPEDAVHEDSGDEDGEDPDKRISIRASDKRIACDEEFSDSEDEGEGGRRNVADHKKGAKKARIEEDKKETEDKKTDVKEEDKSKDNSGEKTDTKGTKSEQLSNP
T3 sequence (Q92769 whole entry): as above
T2 sequence (Q13547 whole entry): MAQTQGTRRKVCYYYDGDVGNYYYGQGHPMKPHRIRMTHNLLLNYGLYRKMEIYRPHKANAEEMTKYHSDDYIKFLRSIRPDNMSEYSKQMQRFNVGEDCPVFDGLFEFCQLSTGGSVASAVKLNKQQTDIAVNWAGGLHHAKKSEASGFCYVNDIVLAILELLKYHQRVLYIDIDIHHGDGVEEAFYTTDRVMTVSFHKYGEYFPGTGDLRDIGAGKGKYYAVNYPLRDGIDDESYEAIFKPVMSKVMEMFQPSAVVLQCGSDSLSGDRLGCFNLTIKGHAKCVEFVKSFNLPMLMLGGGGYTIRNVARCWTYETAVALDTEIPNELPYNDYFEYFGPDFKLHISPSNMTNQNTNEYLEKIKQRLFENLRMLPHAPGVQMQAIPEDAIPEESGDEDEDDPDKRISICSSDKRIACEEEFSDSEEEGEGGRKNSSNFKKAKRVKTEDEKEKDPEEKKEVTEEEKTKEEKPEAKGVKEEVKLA

For orientation: IC50 means the concentration needed to halve the response being measured. On to `Nc1ccc(-c2ccc(F)cc2F)nc1NC(=O)N1CC(c2ncccn2)C1` [Comparator A, reference compound], for which the IC50 at Full length Human HDAC2 (Table 4, numeric) was 5290 nM; at Full length Human HDAC1 (Table 4, numeric), 4580 nM; on HDAC2 (Table 4, numeric), more than 52000 nM.

On to `Cc1ncc(C2CN(C(=O)Nc3nc(-c4ccc(F)cc4F)ccc3N)C2)cn1` [Comparator B, reference compound], for which the IC50 was more than 30000 nM on Full length Human HDAC2 (Table 4, numeric); more than 30000 nM on Full length Human HDAC1 (Table 4, numeric); 30000 nM at HDAC2 (Table 4, numeric).

Consider `Cc1cnc(C2CN(C(=O)Nc3nc(-c4ccc(F)cc4F)ccc3N)C2)cn1` [Comparator C, reference compound], for which the IC50 is 13500 nM on Full length Human HDAC2 (Table 4, numeric); 13900 nM at Full length Human HDAC1 (Table 4, numeric); 9700 nM on HDAC2 (Table 4, numeric).

Turning to `Nc1ccc(-c2ccc(F)cc2F)nc1NC(=O)N1CC(Cc2ncccn2)C1` [Compound 1], the IC50 on Full length Human HDAC2 (Table 2, class symbols) was 500 to 1000 nM; on Full length Human HDAC2 (Table 4, numeric), 700 nM; on Full length Human HDAC1 (Table 2, class symbols), less than 500 nM; on Full length Human HDAC1 (Table 4, numeric), 454 nM; on HDAC2 (Table 4, numeric), 496 nM; against HDAC2 (setting [2]), less than 500 nM. Besides, the “fold more potent in the HDAC2 recombinant enzymatic assay than the corresponding comparator without spacer X” value on Full length Human HDAC2 (setting [1]) is on record as more than 7 fold. Moreover, the “fold more potent in the HDAC1 recombinant enzymatic assay than the corresponding comparator without spacer X” value at Full length Human HDAC1 (setting [1]) was determined as 10 fold. At HDAC2 (setting [1]), the “fold more potent in the SH-SY5Y cell assay than the corresponding comparator without spacer X” value was found to be 100 fold.

For the compound `Nc1ccc(-c2ccc(F)cc2F)nc1NC(=O)N1CC(Cc2ccccn2)C1` [Compound 2], the IC50 is 500 to 1000 nM at Full length Human HDAC2 (Table 2, class symbols); less than 500 nM at Full length Human HDAC1 (Table 2, class symbols); 1000 to 2000 nM at HDAC2 (setting [2]).

Regarding `Nc1ccc(-c2ccc(F)cc2F)nc1NC(=O)N1CC(Cc2cccnc2)C1` [Compound 3], the IC50 on Full length Human HDAC2 (Table 2, class symbols) lay within 1000 to 2000 nM; at Full length Human HDAC1 (Table 2, class symbols), 500 to 1000 nM; at HDAC2 (setting [2]), 1000 to 2000 nM.

In the case of `Nc1ccc(-c2ccc(F)cc2F)nc1NC(=O)N1CC(Cc2ccncc2)C1` [Compound 4], the IC50 at Full length Human HDAC2 (Table 2, class symbols) was more than 2000 nM; on Full length Human HDAC1 (Table 2, class symbols) it was more than 2000 nM; on HDAC2 (setting [2]), 1000 to 2000 nM.

As for `Cc1ccc(CC2CN(C(=O)Nc3nc(-c4ccc(F)cc4F)ccc3N)C2)cn1` [Compound 5], the IC50 at Full length Human HDAC2 (Table 2, class symbols) was 1000 to 2000 nM; at Full length Human HDAC1 (Table 2, class symbols), 1000 to 2000 nM; against HDAC2 (setting [2]), more than 2000 nM.

Take `Cc1ncc(CC2CN(C(=O)Nc3nc(-c4ccc(F)cc4F)ccc3N)C2)cn1` [Compound 6]: the IC50 on Full length Human HDAC2 (Table 2, class symbols) was more than 2000 nM; at Full length Human HDAC2 (Table 4, numeric), 2800 nM; on Full length Human HDAC1 (Table 2, class symbols), more than 2000 nM; on Full length Human HDAC1 (Table 4, numeric) it was 2260 nM; against HDAC2 (Table 4, numeric), 1560 nM; on HDAC2 (setting [2]), 1000 to 2000 nM.

As for `Cc1cnc(CC2CN(C(=O)Nc3nc(-c4ccc(F)cc4F)ccc3N)C2)nc1` [Compound 7], the IC50 on Full length Human HDAC2 (Table 2, class symbols) was more than 2000 nM; at Full length Human HDAC1 (Table 2, class symbols), more than 2000 nM; at HDAC2 (setting [2]), 1000 to 2000 nM.

Regarding `Nc1ccc(-c2ccc(F)cc2F)nc1NC(=O)N1CC(Cc2ccn3cncc3c2)C1` [Compound 8], on HDAC2 (setting [2]), the IC50 was more than 2000 nM.

As to `COCc1ccc(CC2CN(C(=O)Nc3nc(-c4ccc(F)cc4F)ccc3N)C2)cn1` [Compound 9], the IC50 at Full length Human HDAC2 (Table 2, class symbols) was more than 2000 nM; at Full length Human HDAC1 (Table 2, class symbols) it was 1000 to 2000 nM; against HDAC2 (setting [2]), more than 2000 nM.

Take `Cc1cc(CC2CN(C(=O)Nc3nc(-c4ccc(F)cc4F)ccc3N)C2)nc(C)n1` [Compound 10]: at HDAC2 (setting [2]), the IC50 is more than 2000 nM.

As for `Cc1ccnc(CC2CN(C(=O)Nc3nc(-c4ccc(F)cc4F)ccc3N)C2)n1` [Compound 11], the IC50 lay within 500 to 1000 nM at Full length Human HDAC2 (Table 2, class symbols); 500 to 1000 nM at Full length Human HDAC1 (Table 2, class symbols); 500 to 1000 nM on HDAC2 (setting [2]).

Turning to `Nc1ccc(-c2ccc(F)cc2F)nc1NC(=O)N1CC(Cc2cnccn2)C1` [Compound 12], the IC50 on Full length Human HDAC2 (Table 2, class symbols) lay within 500 to 1000 nM; at Full length Human HDAC1 (Table 2, class symbols), 500 to 1000 nM; against HDAC2 (setting [2]) it was 1000 to 2000 nM.

For `Cc1cncc(CC2CN(C(=O)Nc3nc(-c4ccc(F)cc4F)ccc3N)C2)n1` [Compound 13], the IC50 on Full length Human HDAC2 (Table 2, class symbols) fell in the range of 1000 to 2000 nM; on Full length Human HDAC1 (Table 2, class symbols), 1000 to 2000 nM; on HDAC2 (setting [2]), 1000 to 2000 nM.

Take `Cc1cnc(CC2CN(C(=O)Nc3nc(-c4ccc(F)cc4F)ccc3N)C2)cn1` [Compound 14]: the IC50 on Full length Human HDAC2 (Table 2, class symbols) was 500 to 1000 nM; on Full length Human HDAC2 (Table 4, numeric), 583 nM; at Full length Human HDAC1 (Table 2, class symbols) it was less than 500 nM; at Full length Human HDAC1 (Table 4, numeric), 406 nM; against HDAC2 (Table 4, numeric), 687 nM; against HDAC2 (setting [2]), 500 to 1000 nM.

Turning to `COCc1cccc(CC2CN(C(=O)Nc3nc(-c4ccc(F)cc4F)ccc3N)C2)n1` [Compound 17], at HDAC2 (setting [2]), the IC50 was more than 2000 nM.

In turn, `COCc1cc(CC2CN(C(=O)Nc3nc(-c4ccc(F)cc4F)ccc3N)C2)ccn1` [Compound 18] returned an IC50 against HDAC2 (setting [2]) of more than 2000 nM.

As to `Nc1ccc(-c2ccc(F)cc2F)nc1NC(=O)N1CC(Cc2cncnc2)C1` [Compound 20], the IC50 at HDAC2 (setting [2]) is more than 2000 nM.
